Measured values: US6890520B2, “Thermally stable ferulic acid derivatives” (Wakayama Prefecture, priority 2003, dated 2005)

Tests used:
[1] = related art statement; cited from earlier work
[2] = Thermal decomposition temperature by thermogravimetric-differential thermal analyzer TG/DTA 6200; type: physicochemical
Procedure: A thermal decomposition temperature of bis-4,4′-(2-ethoxycarbonyl-1-ethenyl)-2,2′-methoxyphenoxymethane prepared in Example 1 was determined by using a thermogravimetric-differential thermal simultaneous analyzer “TG/DTA 6200” (commercially available from Seiko Instruments Inc.).
A thermal decomposition temperature of bis-4,4′-(2-2-ethyl-1-hexyloxycarbonyl-1-ethenyl)-2,2′-methoxyphenoxymethane prepared in Example 9 was determined by using a thermogravimetric-differential thermal simultaneous analyzer “TG/DTA 6200” (commercially available from Seiko Instruments Inc.).
A thermal decomposition temperature of bis-4,4′-(2-dodecyloxycarbonyl-1-ethenyl)-2,2′-methoxyphenoxymethane prepared in Example 10 was determined by using a thermogravimetric-differential thermal simultaneous analyzer “TG/DTA 6200” (commercially available from Seiko Instruments Inc.).

| thermal decomposition point [2] [°C] | SMILES | decomposition temperature [1] [°C] |
| --- | --- | --- |
|  | COc1cc(/C=C/C(=O)O)ccc1O [ferulic acid] | 176 |
| 318 | CCCCCCCCCCCCOC(=O)C=Cc1ccc(OCOc2ccc(C=CC(=O)OCCCCCCCCCCCC)cc2OC)c(OC)c1 [Example 10, Bis-4,4′-(2-dodecyloxycarbonyl-1-ethenyl)-2,2′-methoxyphenoxymethane] |  |
| 355 | CCCCC(CC)COC(=O)C=Cc1ccc(OCOc2ccc(C=CC(=O)OCC(CC)CCCC)cc2OC)c(OC)c1 (stereo not shown) [Example 9, Bis-4,4′-(2-2-ethyl-1-hexyloxycarbonyl-1-ethenyl)-2,2′-methoxyphenoxymethane] |  |

| SMILES | thermal decomposition point [2] [°C] | decomposition temperature [1] [°C] |
| --- | --- | --- |
| CCOC(=O)C=Cc1ccc(OCOc2ccc(C=CC(=O)OCC)cc2OC)c(OC)c1 [Example 1, Bis-4,4′-(2-ethoxycarbonyl-1-ethenyl)-2,2′-methoxyphenoxymethane] | 359 |  |
